{"source": "patent US20220133753A1", "about": "“COMPOSITIONS AND METHODS USEFUL FOR TREATING DISEASES CHARACTERIZED BY INSUFFICIENT PANTOTHENATE KINASE ACTIVITY” (Comet Therapeutics, Inc., priority 2016, published 2022)", "key": {"[1]": {"test_system": "conversion of CoA into 4′-phosphopantetheine in serum", "format": "biochemical", "settings": "serum pre-treated with the agent, CoA 10 μM, 3 hours", "description": "(PpanSH=4′-phosphopantetheine; in all panels CoA was added to the indicated sera with a final starting concentration of 10 μM measured by HPLC analysis and percentages relative to CoA incubation for 3 hours in PBS (=100%) are indicated on the y-axis).\nSerum from various species (fetal calf, mouse and human) was pre-conditioned, and CoA conversion into 4′-phosphopantetheine was assessed. First, the effect of heat inactivation of the serum was studied. […] Second, the conversion of CoA to 4′-phosphopantetheine requires the hydrolysis of a phosphoanhydride bond, which is typically catalyzed by (pyro)phosphatases or hydrolases. The majority of enzymes in the known family of (pyro)phosphatases and hydrolases depend on metal ions for their activity. To test these candidates, EDTA was added to serum to chelate metal ions."}, "[2]": {"test_system": "primary human fibroblasts from healthy controls, MCAD deficiency and PA deficiency patients", "assay": "Mitochondrial stress test (Seahorse), basal OCR of primary fibroblasts", "format": "cell-based", "settings": "data not shown", "source_text": "A study was thus performed to test the ability of S-acetyl-(S)-4′-phosphopantetheine to facilitate increased basal oxidative respiration in primary fibroblast cultures from patients diagnosed with MCAD deficiency and PA deficiency. Impaired metabolism were observed through functional measurements of respiration using a Seahorse XF Analyzer, where oxygen consumption rate (OCR) reflects oxidative respiration.\nPatient derived cell lines were subject to a mitochondrial stress test according to standard protocol with a cell seeding density of 30 k cells/well (n=2) in glucose free media. After incubation with various concentrations of S-acetyl-4′-phosphopantetheine or vehicle for 24 h, rescue potential was assessed by increase in basal OCR (average of six readings between 30-70 min), relative to control: basal OCR from vehicle treatment was set to 1.0. […] Experiment was performed in two replicates: systematically outlying values caused by seeding errors, port failures, or values within background were excluded from analysis."}, "[3]": {"test_system": "MCAD patient fibroblast cell lines", "assay": "Mitochondrial stress test (Seahorse), reserve capacity of MCAD patient fibroblasts", "format": "cell-based, human", "settings": "all cell lines, data not shown", "source_text": "Medium-chain acyl-CoA dehydrogenase (MCAD) deficiency is a condition in which the body's capacity to break down fats with medium chain lengths is impaired, caused by mutations in the ACADM gene, which can lead to hypoglycaemia, and liver dysfunction. Left untreated, it can lead to seizures, coma and other serious health problems, with acute symptoms often preceded by extended periods of fasting or an infection with vomiting. Impaired metabolism were observed through functional measurements of respiration using a Seahorse XF Analyzer, where oxygen consumption rate (OCR) reflects oxidative respiration.\nA study was performed to test the Rescue potential of S-acetyl-4′-phosphopantetheine in primary patient fibroblast model of MCAD deficiency. MCAD patient fibroblast cell lines (genotyped as containing homozygous K304E mutations in ACADM) were subject to a mitochondrial stress test according to standard protocol with a cell seeding density of 30 k cells/well (n=2). Rescue potential was assessed by increase in reserve capacity: defined as the difference between basal and maximal OCR, controlled by subtracting values for non-mitochondiral respiration (after rotenone treatment). The study was performed in two replicates."}, "[4]": {"assay": "Parallel Artificial Membrane Permeability Assay (PAMPA)", "format": "in vitro ADME", "settings": "PAMPA", "description": "FIG. 13E is a depiction of a Parallel Artificial Membrane Permeability Assay (PAMPA). Experiments were performed according to the manufacturer's instructions. In this assay, a two-well system is separated by an artificial lipid-oil-lipid membrane (shown in grey). To the lower (donor) compartment, a compound dissolved in buffer is added, the upper (acceptor) compartment contains only buffer. After 5 hours of incubation, concentration of compound is measured in both wells to assess its propensity to diffuse over the artificial membrane. The permeability was calculated according to the manufacturer's instruction (formulas are depicted to the right). Compounds that are below the assay threshold are predicted to be unable to pass membranes passively, whereas compounds above the threshold are able to pass membranes passively. Ceq=Equilibrium Concentration, CD=Concentration in donor well, VD=Volume of donor well (0.3 ml), CA=Concentration in acceptor well, VA=Volume of acceptor well (0.2 ml), P=Permeability, S=Membrane area (0.3 cm2), t=Incubation time (18000 s).\nPAMPA assay procedure: Parallel Artificial Membrane Permeability Assay (PAMPA) was performed and processed according to manufacturer's instructions (BD Gentest Pre-coated PAMPA plates). Briefly, two superimposed wells are separated by an artificial lipid-oil-lipid membrane. The compound of interest (PPanSH, CoA, caffeine, amiloride) was added to the bottom well in phosphate-buffered saline, whereas the top well was filled with phosphate-buffered saline alone. After 5 h of incubation at room temperature, concentrations of the different compounds were measured using UV-VIS absorption spectroscopy (BMG Labtech SPECTROstar Omega) along with calibration curves for all compounds. The permeability efficiency was further calculated according to manufacturer's instructions. For caffeine and amiloride, four replicates were performed; for PPanSH and CoA twelve replicates were performed. Caffeine and amiloride were obtained from Sigma."}, "[5]": {"test_system": "Drosophila S2 cells", "assay": "HoPan treatment of Drosophila S2 cells in combination with CoA or 4′-phosphopantetheine", "format": "cell-based", "settings": "HoPan alone", "description": "HoPan treatment of Drosophila S2 Cell in combination with CoA or 4′-phosphopantetheine treatment: Drosophila Schneider's S2 cells were maintained at standard conditions as explained above. Cells in the exponential phase of growth were used for all the experiments. Different indicated concentrations of CoA or 4′-phosphopantetheine (deuterium labelled PPanSH(D4) or unlabeled PPanSH) were added to S2 cells either in the presence or absence of 0.5 mM HoPan (Zhou Fang Pharm Chemical, China) for 48 h. Similarly, Drosophila S2 cells were treated with different concentrations of PPanSH(D4) at either 25° C. or 4° C. and cells were then harvested at various time points to access transport of PPanSH(D4). Stable isotope labelled PPanSH containing 4 deuterium atoms was purchased from Syncom (Groningen, The Netherlands) as a sodium salt (chemical structure is provided in FIG. 13A). As a read out cell count, intracellular total CoA and PPanSH levels (both labelled and unlabeled levels wherever appropriate) and histone acetylation levels were analyzed as explained below.\nDrosophila S2 Cell Immunofluorescence Staining: For immunofluorescence Drosophila S2 cells were seeded on Poly-L-Lysine coated (Sigma-Aldrich) glass microscope slides and allowed to settle for 45 min. Cells were fixed with 3.7% formaldehyde (Sigma Aldrich) for 20 min, washed briefly with PBS+0.1% Triton-X-100 (Sigma Aldrich) and permeabilized with PBS+0.2% Triton-X-100 for 20 min. The slides were incubated in primary antibody (rabbit anti-AcLys, Cell Signaling Cat No: 9441, 1:500) to visualize histone acetylation levels in PBS+0.1% Triton-X-100 overnight and after an additional washing step in PBS+0.1% Triton-X-100 they were incubated in secondary goat anti-rabbit-Alexa488 antibody (Molecular Probes) for two hours at room temperature (RT). F-actin was detected with Rhodamin-Phalloidin (20 U/ml)(Invitrogen) and DNA by staining with DAPI (0.2 ug/ml) (Thermo Scientific). Finally the samples were mounted in 80% glycerol and analyzed using a Leica fluorescence microscope with Leica software. Adobe Photoshop and Illustrator (Adobe Systems Incorporated, San Jose, Calif., USA) were used for image assembly."}, "[6]": {"test_system": "Drosophila w1118 control fly line", "assay": "Drosophila HoPan toxicity and CoA rescue experiment (eclosion)", "format": "in vivo", "settings": "HoPan in the food during development", "source_text": "Drosophila HoPan Toxicity and CoA Rescue Experiment: One week old w1118 flies (in the ratio 10 females and 5 males) were kept in vials containing standard fly food with or without HoPan and CoA at indicated concentrations. The flies were allowed to lay eggs for 2 days, after which the adults were discarded. The resulting offspring were allowed to develop. The numbers of flies which eclosed were counted to evaluate HoPan toxicity and CoA rescue efficiency."}, "[7]": {"test_system": "HEK293 cells", "assay": "HoPan treatment of mammalian HEK293 cells in combination with CoA or 4′-phosphopantetheine", "format": "cell-based, human", "settings": "HoPan alone", "description": "HoPan treatment of mammalian HEK293 Cells in combination with CoA and 4′-phosphopantetheine treatment: HEK293 cells were maintained in dMEM (Invitrogen) supplemented with 10% fetal calf serum (Gibco) and antibiotics (penicillin/streptomycin, Invitrogen). For HoPan treatment, cells were cultured in custom made dMEM without vitamin B5 (Thermo Scientific) supplemented with dialyzed FCS (Thermo Scientific). CoA or PPanSH was added to HEK293 cells for the final concentration of 25 uM, either in the presence or absence of HoPan (0.5 mM) for 4 days, followed by analysis for phenotype and rescue efficiency of CoA and PPanSH.\nWestern blot analysis and Antibodies: For Western blot analysis, cells were collected and washed with phosphate buffer saline (PBS), followed by centrifugation. The cells were lysed and sonicated in 1X Laemmli Sample Buffer and boiled for 5 min with 5% β-mercaptoethanol (Sigma). Protein content was determined using DC protein assay (BioRad). Equal amounts of protein were loaded on a 10 or 12.5% SDS-PAGE gel, transferred onto PVDF membranes and blocked with 5% milk in PBS/0.1% Tween, followed by overnight incubation with primary antibodies. The primary antibodies used were: rabbit-anti dPANK/fbl, 1:4000 Eurogentec custom made as described previously5, mouse anti-tubulin (Sigma Aldrich Cat no: T5168, 1:5000), anti-acetyl-Histone3 (Active Motif Cat no: 39139, 1:2000), anti GAPDH (Fitzgerald Cat no: 10R-G109a, 1:10000), rabbit anti COASY (Abcam Cat no: AB129012, 1:1000). Appropriate HRP-conjugated secondary antibodies (Amersham) were used and detection was performed using enhanced chemi-luminescence (Pierce cat nog: 32106) and Amersham hyperfilm (GE Healthcare). Band intensities were quantified with Image-studio software."}}}
{"compound": "O=C(O)CN(CCN(CC(=O)O)CC(=O)O)CC(=O)O", "note": "[EDTA]", "values": [{"measurement": "effect on conversion (degradation) of CoA into 4′-phosphopantetheine in serum", "setting": "[1]", "value": "completely prevented the formation of 4′-phosphopantetheine"}]}
{"compound": "Nc1ncnc2c1ncn2[C@@H]1O[C@H](COP(=O)(O)OP(=O)(O)O)[C@@H](O)[C@H]1O", "note": "[ADP]", "values": [{"measurement": "effect on conversion (degradation) of CoA into 4′-phosphopantetheine in serum", "setting": "[1]", "value": "competitively blocked the conversion"}]}
{"compound": "c1ccc([C@H]2CN3CCSC3=N2)cc1", "note": "[Levamisole, levamisole]", "values": [{"measurement": "effect on conversion (degradation) of CoA into 4′-phosphopantetheine in serum", "setting": "[1]", "value": "only mild or no inhibition"}]}
{"compound": "C=C(C)[C@H]1Cc2c(ccc3c2O[C@@H]2COc4cc(OC)c(OC)cc4[C@@H]2C3=O)O1", "note": "[Rotenone]", "values": [{"measurement": "cell line response to positive control", "setting": "[2]", "value": "generated expected profiles"}, {"measurement": "cell line response to positive control", "setting": "[3]", "value": "generated expected profiles of ETC inhibition"}]}
{"compound": "Cn1c(=O)c2c(ncn2C)n(C)c1=O", "note": "[caffeine]", "values": [{"measurement": "membrane permeation (PAMPA)", "setting": "[4]", "value": "well-permeating compound"}]}
{"compound": "Nc1ncnc2c1ncn2[C@@H]1O[C@H](COP(=O)(O)OP(=O)(O)OP(=O)(O)O)[C@@H](O)[C@H]1O", "note": "[ATP]", "values": [{"measurement": "effect on conversion (degradation) of CoA into 4′-phosphopantetheine in serum", "setting": "[1]", "value": "competitively blocked the conversion"}]}
{"compound": "[F-].[Na+]", "note": "[sodium fluoride, Sodium fluoride]", "values": [{"measurement": "effect on conversion (degradation) of CoA into 4′-phosphopantetheine in serum", "setting": "[1]", "value": "only mild or no inhibition"}]}
{"compound": "CC(C)(CO)[C@@H](O)C(=O)NCCCC(=O)O", "note": "[HoPan, Hopantenate]", "values": [{"measurement": "cell count of S2 cells", "setting": "[5]", "value": "induced a decrease in cell count"}, {"measurement": "histone acetylation levels of S2 cells", "setting": "[5]", "value": "induced a decrease"}, {"measurement": "intracellular CoA levels", "setting": "[5]; S2 cells, HPLC", "value": "significantly reduced"}, {"measurement": "intracellular levels of 4′-phosphopantetheine", "setting": "[5]; S2 cells, HPLC", "value": "reduced levels of 4′-phosphopantetheine"}, {"measurement": "eclosion rate", "setting": "[6]", "value": "decreased"}, {"measurement": "larval lethality", "setting": "[6]", "value": "larval lethality was induced"}, {"measurement": "intracellular CoA levels", "setting": "[7]; HEK293 cells, HPLC", "value": "significantly reduced"}, {"measurement": "cell count of HEK293 cells", "setting": "[7]", "value": "decreased cell count"}, {"measurement": "histone acetylation of HEK293 cells", "setting": "[7]", "value": "impaired histone acetylation"}]}
{"compound": "Cc1ccc(C(=O)Nc2ccc(S(=O)(=O)O)c3cc(S(=O)(=O)O)cc(S(=O)(=O)O)c23)cc1NC(=O)c1cccc(NC(=O)Nc2cccc(C(=O)Nc3cc(C(=O)Nc4ccc(S(=O)(=O)O)c5cc(S(=O)(=O)O)cc(S(=O)(=O)O)c45)ccc3C)c2)c1", "note": "[suramin]", "values": [{"measurement": "effect on conversion (degradation) of CoA into 4′-phosphopantetheine in serum", "setting": "[1]", "value": "able to inhibit"}]}
{"compound": "O=S(=O)(O)c1cc(N=C=S)ccc1C=Cc1ccc(N=C=S)cc1S(=O)(=O)O", "note": "[DIDS, 4,4′-diisothiocyanatostilbene-2,2′ disulphonic acid]", "values": [{"measurement": "effect on conversion (degradation) of CoA into 4′-phosphopantetheine in serum", "setting": "[1]", "value": "able to inhibit"}]}
{"compound": "N=C(N)NC(=O)c1nc(Cl)c(N)nc1N", "note": "[amiloride]", "values": [{"measurement": "membrane permeation (PAMPA)", "setting": "[4]", "value": "poorly permeating molecule"}]}
